The results in this text go back to patent US20080039527A1, “Calixarenes as Inhibitors of Protein Kinase B” (Imperial College Innovations Ltd., priority 2003, published 2008).

A short description of data set [1]: Dilution of compounds into water (observed solubility). The source says:
The monomer, dimer and trimer of compound 48/80 were received as synthesised from Macba Numbere at UCL.

Data set [2] deals with PKB Ser473 phosphorylation. Briefly: PKB Ser473 activation synergy experiments (Western blot, NIH3T3 cells primed with NCS). It counts as cell-based. The settings on record: for phosphorylation of PKB (Western blot 1, FIG. 1): NIH3T3 cells, 1% NCS 20 minutes then compound 15 minutes. The source says:
PKB is a protein downsteam effector of PI3K, and becomes phosphorylated on (residues required for its activity) in response to the activation of PI3K. Natal Calf Serum (NCS) is a stimulator of PI3K and thus subsequently results in PKB activation. Therefore the positive control used in experiments is 10% serum and a negative control used is provided with no serum at all.
Compound 48/80 is the condensation product of N-methyl-p-methoxyphenethylamine and formaldehyde and is a mixture of cationic amphiphiles of varying degrees of polymerisation.
In a typical method, NIH3T3 cells were grown in media (GibcoBRL) containing 10% NCS to near confluency in six well plates. The cells were starved using 0.5% serum for 2-3 days. The media was then removed and replaced with serum free media for 15 minutes. Subsequently, 1% NCS was added to reaction wells, and 0%, 1% and 10% NCS to control wells. After 20 minutes incubation, then compound was added, and the wells incubated for a further 15 minutes. Media was removed and sample buffer was added and the cells lysed, boiled, centrifuged.
Samples were subjected to gel electrophoresis by 10% SDS-PAGE and then Western blotted on to PVDF membrane (Biorad) according to standard protocols. Western blots were probed using primary antibodies against PKB purchased from New England Biolabs and secondary antibodies of goat anti-rabbit IgG coupled to horseradish peroxidase (Amersham). The membranes were then developed using a freshly prepared ECL solution according to standard protocols.
In general terms: A western blot detects proteins with antibodies after separation by electrophoresis.

Where [3] appears, read: diluted into water initially, afterwards into DMSO.

Where two headings read alike, the source gives them in different places.

Take `CNCCc1ccc(OC)c(Cc2cc(CCNC)cc(Cc3cc(CCNC)ccc3OC)c2OC)c1.Cl.Cl.Cl` [trimer]: the “solubility on dilution into water” value in data set [1] was “solubility problems”. For the same molecule, the “overall effect on PKB (conclusion from these studies)” value in data set [2] is given as “inhibiting species”. The entries for the “phosphorylation of PKB (Western blot 1, FIG. 1)” value in data set [2] (3 μg/mL) and in data set [2] (6 μg/mL) were “just below that of 1% serum activation” and “almost completely inhibited”, respectively.

Regarding “Benzeneethanamine-3,3′-methylenebis(4-methoxy-N-methyl) dihydrochloride [dimer]”, the “solubility on dilution into water” value in data set [1] (setting [3]) is “solubility problems”.

For `CNCCc1ccc(OC)cc1` [monomer, N-methyl-p-methoxyphenethylamine], the “solubility on dilution into water” value in data set [1] (setting [3]) is listed as “solubility problems”. The “overall effect on PKB (conclusion from these studies)” value in data set [2] was “activating species”. Also, the “PKB Ser473 phosphorylation (Western blot 3)” value in data set [2] (5 μg/mL experiment, controls contain DMSO at 2.5%) was “slight activation above control levels”.
